Measurements published in patent US12729194B2, “Compounds for the treatment of human immunodeficiency virus” (priority 2019, dated 2026).

Key:
HIV-1AD8 Env on VLPs [1] = assay: Shedding of gp120 from VLP Env; details: 4° C. and 37° C., 4 days, no detergent
Method: Shedding of gp120 from VLP Env: The effect of compounds on the spontaneous shedding of gp120 from VLP Env was evaluated. VLPs with the wild-type HIV-1AD8 Env were prepared from the supernatants of A549-Gag/Env cells, as described above. The VLPs were suspended in PBS, to which was added either DMSO or a compound described herein. An aliquot of the VLP suspension in PBS/DMSO was processed as described below to serve as a Day 0 control. The VLP suspensions were incubated for 4 days at 4° C., room temperature or 37° C. (with gentle rocking). Then the VLPs were pelleted (100,000×g for 30 min at 4° C.). The pellets and supernatants were boiled in LDS sample buffer and analyzed by Western blotting with either 1:2000 goat anti-gp120 polyclonal antibody (ThermoFisher) and HRP-conjugated rabbit anti-goat IgG antibody, or with 1:5000 rabbit anti-Gag p55/p24/p17 antibody (Abcam) and HRP-conjugated goat anti-rabbit IgG antibody (Abcam).

[2] = tested on: envelope glycoproteins of the amphotropic murine leukemia virus (AMLV); assay: microbe, parasite or virus in culture; format: cell-based; details: Cf2Th-CD4/CCR5 target cells, 48 hours, luciferase, specificity control, read-out: 50% inhibitory concentration (IC50), AMLV
HIV-1 with HIV-1AD8 Env = assay: microbe, parasite or virus in culture; format: cell-based; details: Human immunodeficiency virus 1; Cf2Th-CD4/CCR5 target cells, 48 hours, luciferase; means and standard errors of four experiments; read-out: 50% inhibitory concentration (IC50), AD8
[3] = tested on: HIV-1 with JR-FL S375W Env; format: cell-based; details: Cf2Th-CD4/CCR5 target cells, 48 hours, luciferase; read-out: 50% inhibitory concentration (IC50), JR-FL S375W
[4] = tested on: HIV-1 with HIV-1JR-FL Env; assay: microbe, parasite or virus in culture; format: cell-based; details: Human immunodeficiency virus 1; Cf2Th-CD4/CCR5 target cells, 48 hours, luciferase; means and standard errors of four experiments; read-out: 50% inhibitory concentration (IC50), JR-FL
HIV-1 with BG505 Env = assay: microbe, parasite or virus in culture; format: cell-based; details: Human immunodeficiency virus 1; Cf2Th-CD4/CCR5 target cells, 48 hours, luciferase; means and standard errors of four experiments; read-out: 50% inhibitory concentration (IC50), BG505
HIV-1AD8 Env on VLPs [5] = assay: Reversibility of compound effects on VLP Env conformation (19b antibody recognition after washing)
Method: Characterization of VLP-associated Env: To prepare VLPs with HIV-1AD8 Env, 150-mm dishes of 30-40% confluent A549-Gag/Env cells were seeded and, on the following day, treated with 2 μg/ml doxycycline. Approximately 72 hours after induction, cell supernatants were harvested and cleared by low-speed centrifugation (500×g for 15 minutes at 4° C.) and 0.45-μ filtration. VLPs were pelleted by centrifugation at 100,000×g for one hour at 4° C. The resuspended VLP preparation was clarified by low-speed centrifugation. BMS-806 and compounds described herein were added to the clarified VLP-containing suspensions. In some cases, the VLP-compound mixtures were irradiated with a 100-watt, 365-nm ultraviolet (UV) lamp for 10 minutes at room temperature. For all UV studies, exposure of the samples to visible light was minimized.
For studies of the reversibility of effects, the compounds were added to the VLPs and mixed for several seconds at room temperature. Then the VLPs were pelleted (20,000×g for 30 minutes at 4° C.) twice, washing with 1.5 ml PBS with 2% DMSO. The pelleted VLPs were resuspended in 1 ml PBS with 2% DMSO and incubated at room temperature for various lengths of time (20 minutes—3 weeks). Control VLPs were incubated in the continued presence of the compounds at room temperature for the same length of time. Then the VLPs were pelleted (20,000×g for 30 minutes at 4° C.) and the pellet incubated with 1.5% Triton X-100 for 30 minutes at 4° C. The VLP lysates were centrifuged (20,000×g for 30 minutes at 4° C.) and the supernatants were incubated with antibodies (10 μg/ml) in a 50-μl volume with 25 mg/ml of Protein A-Sepharose beads for one hour at 4° C. The beads were pelleted (1000 rpm for 1 minute at room temperature) and washed three times with 1 ml wash buffer with 1% Triton X-100. The beads were suspended in NuPAGE LDS Sample Buffer (ThermoFisher), boiled and analyzed by Western blot, as described above.
The BMS-806-induced decrease in binding of the 19b anti-V3 antibody can be used as an indicator of BMS-806-Env binding, allowing estimation of the stability of the Env-compound complex. BMS-806 and BMS-529 were incubated with the HIV-1AD8 Env on VLPs. The VLPs were then washed and incubated at room temperature for various lengths of time in a buffer with (+/+) or without (+/−) compound. After this incubation, Env conformation was assessed using the 19b anti-V3 antibody, the 2G12 antibody (the binding of which is not affected by BMS-806), and a negative control human immunoglobulin (hIgG) preparation. 19b recognition of Env in the washed samples (+/−) was compared with those in the samples continuously incubated with the compound (+/+) and the untreated samples (−) (FIG. 4). […] Despite this slow rate of dissociation of compounds described herein from Env, the binding and the consequent effects of these compounds on Env conformation appear to be reversible.

Compound	Spontaneous shedding of gp120 into the VLP supernatant (HIV-1AD8 Env on VLPs [1])	IC50 [2] [nM]	IC50 (HIV-1 with HIV-1AD8 Env) [nM]	IC50 [3] [nM]	IC50 [4] [nM]	IC50 (HIV-1 with BG505 Env) [nM]	Conformational effect on 19b binding after washing (HIV-1AD8 Env on VLPs [5]; twenty-four hours after washing, room temperature)	Durability / reversibility of Env conformational effects (in words) (HIV-1AD8 Env on VLPs [5]; after washing)
COc1ccnc2[nH]cc(C(=O)C(=O)N3CCN(C(=O)c4ccccc4)C[C@H]3C)c12 [BMS-806, reference compound]	decreased the shedding of gp120	> 100	0.4	> 100	1.6	0.8	much less evident	–
COc1ccc(-c2ccc(CNC(=O)c3c(F)c(F)c(N=[N+]=[N-])c(F)c3F)o2)c2[nH]cc(C(=O)C(=O)N3CCN(C(=O)c4ccccc4)CC3)c12 [AEG-II-168]	decreased the shedding of gp120	> 100	2.8	> 100	1.5	0.22	–	at least three weeks
